Read-outs that look alike come from different tables or passages of the source.
Key:
human PR-B [1] = molecular target: T1, human PR-B (Homo sapiens, UniProt P06401); assay: Co-transfection assay, PR agonist activity; format: cell-based; conditions: for Emax: CV-1, read-out: PR Agonist CV-1 Cells Efficacy (%); for PR Agonist CV-1 Cells Efficacy (%): percent maximal response relative to reference agonist progesterone;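 as to all read-outs here: CV-1 cells (African green monkey kidney) co-transfected with receptor plasmid and hormone-responsive firefly luciferase reporter, agonism read as compound-dependent rise in luciferase signal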
T1 construct: expressed in transfected cells; host or cells: CV-1 cells (African green monkey kidney fibroblasts), transient transfection
T1 sequence (P06401 1-933): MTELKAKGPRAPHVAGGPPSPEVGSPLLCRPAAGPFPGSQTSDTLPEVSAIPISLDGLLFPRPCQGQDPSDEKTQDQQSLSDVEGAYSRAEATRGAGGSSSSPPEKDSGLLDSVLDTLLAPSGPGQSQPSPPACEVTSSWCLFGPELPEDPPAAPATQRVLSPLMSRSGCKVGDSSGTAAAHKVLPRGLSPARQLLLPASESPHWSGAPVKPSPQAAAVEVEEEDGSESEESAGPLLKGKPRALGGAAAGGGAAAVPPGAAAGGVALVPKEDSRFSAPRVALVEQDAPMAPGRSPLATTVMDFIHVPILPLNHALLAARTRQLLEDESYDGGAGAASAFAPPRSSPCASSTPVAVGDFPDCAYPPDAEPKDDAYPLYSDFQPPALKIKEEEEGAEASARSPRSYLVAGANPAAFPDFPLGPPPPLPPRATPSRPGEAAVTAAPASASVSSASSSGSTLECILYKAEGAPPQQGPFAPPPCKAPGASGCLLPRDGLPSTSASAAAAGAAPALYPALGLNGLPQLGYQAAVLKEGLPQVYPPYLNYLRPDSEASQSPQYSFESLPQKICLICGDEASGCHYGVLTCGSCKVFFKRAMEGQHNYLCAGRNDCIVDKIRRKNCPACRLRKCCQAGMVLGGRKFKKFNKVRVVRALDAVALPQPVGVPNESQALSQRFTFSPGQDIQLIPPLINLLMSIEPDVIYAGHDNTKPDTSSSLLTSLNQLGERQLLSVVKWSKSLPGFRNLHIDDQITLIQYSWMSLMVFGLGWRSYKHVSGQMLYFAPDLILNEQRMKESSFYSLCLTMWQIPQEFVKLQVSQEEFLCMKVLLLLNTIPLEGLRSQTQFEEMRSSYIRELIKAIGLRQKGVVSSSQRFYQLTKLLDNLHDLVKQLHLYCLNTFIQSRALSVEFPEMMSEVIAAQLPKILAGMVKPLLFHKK

human PR-B [2] = molecular target: T1, human PR-B; assay: Co-transfection assay, PR antagonist activity; format: cell-based; conditions: for Emax: CV-1, read-out: PR Antagonist CV-1 Cells Efficacy (%);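 as to all read-outs here: monkey kidney fibroblasts co-transfected with receptor expression plasmid and hormone-responsive luciferase reporter, antagonism read as reduced luciferase signal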
[3] = molecular target: T2, human progesterone receptor A form (PR-A) (Homo sapiens, UniProt P06401); assay: PR binding assay
T2 sequence (P06401 1-933): T1 sequence (P06401 1-933)

PR [4] = assay: Uterine wet weight assay (PR agonist effectiveness); format: in vivo, Sprague-Dawely rats
Excerpt: J. Obstet. […] R.I. Dorfman, Academic Press, New York, New York, pp101-130 (1969), the disclosures of which are herein incorporated by reference. Four to five week old, ovariectomized, Sprague-Dawely rats (Harlan-Sprague-Dawely, Indianapolis, IN) were obtained 1 week after surgery and allowed to acclimate for an additional week after shipment.

ER [5] = molecular target: T3, ER (Homo sapiens, UniProt P03372); assay: Co-transfection assay, ER agonist activity; format: cell-based
T3 construct: expressed in transfected cells; host or cells: CV-1 cells, transient transfection, with MTV-ERE5-LUC reporter
T3 sequence (P03372 whole entry): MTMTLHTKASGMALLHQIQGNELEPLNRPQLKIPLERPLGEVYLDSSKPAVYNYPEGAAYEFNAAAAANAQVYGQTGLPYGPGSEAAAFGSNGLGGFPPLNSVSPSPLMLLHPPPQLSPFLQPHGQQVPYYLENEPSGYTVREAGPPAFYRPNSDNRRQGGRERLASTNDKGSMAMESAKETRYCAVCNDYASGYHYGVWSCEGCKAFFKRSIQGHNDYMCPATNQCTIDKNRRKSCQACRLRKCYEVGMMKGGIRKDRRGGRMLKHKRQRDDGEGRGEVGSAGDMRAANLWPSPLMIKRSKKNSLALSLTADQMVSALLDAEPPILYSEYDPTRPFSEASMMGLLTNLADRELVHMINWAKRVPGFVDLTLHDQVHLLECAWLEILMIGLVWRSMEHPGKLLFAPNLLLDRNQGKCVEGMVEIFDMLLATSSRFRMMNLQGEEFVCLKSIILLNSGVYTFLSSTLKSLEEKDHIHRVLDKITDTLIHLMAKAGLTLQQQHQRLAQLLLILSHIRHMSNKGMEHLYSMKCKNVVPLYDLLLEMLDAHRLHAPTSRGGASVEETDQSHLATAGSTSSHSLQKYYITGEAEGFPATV

ER [6] = molecular target: T3, ER; assay: Co-transfection assay, ER antagonist activity; format: cell-based
GR = molecular target: T4, GR (Homo sapiens, UniProt P04150); assay: Co-transfection assay, GR antagonist activity; format: cell-based
T4 construct: expressed in transfected cells; host or cells: CV-1 cells, transient transfection
T4 sequence (P04150 1-777): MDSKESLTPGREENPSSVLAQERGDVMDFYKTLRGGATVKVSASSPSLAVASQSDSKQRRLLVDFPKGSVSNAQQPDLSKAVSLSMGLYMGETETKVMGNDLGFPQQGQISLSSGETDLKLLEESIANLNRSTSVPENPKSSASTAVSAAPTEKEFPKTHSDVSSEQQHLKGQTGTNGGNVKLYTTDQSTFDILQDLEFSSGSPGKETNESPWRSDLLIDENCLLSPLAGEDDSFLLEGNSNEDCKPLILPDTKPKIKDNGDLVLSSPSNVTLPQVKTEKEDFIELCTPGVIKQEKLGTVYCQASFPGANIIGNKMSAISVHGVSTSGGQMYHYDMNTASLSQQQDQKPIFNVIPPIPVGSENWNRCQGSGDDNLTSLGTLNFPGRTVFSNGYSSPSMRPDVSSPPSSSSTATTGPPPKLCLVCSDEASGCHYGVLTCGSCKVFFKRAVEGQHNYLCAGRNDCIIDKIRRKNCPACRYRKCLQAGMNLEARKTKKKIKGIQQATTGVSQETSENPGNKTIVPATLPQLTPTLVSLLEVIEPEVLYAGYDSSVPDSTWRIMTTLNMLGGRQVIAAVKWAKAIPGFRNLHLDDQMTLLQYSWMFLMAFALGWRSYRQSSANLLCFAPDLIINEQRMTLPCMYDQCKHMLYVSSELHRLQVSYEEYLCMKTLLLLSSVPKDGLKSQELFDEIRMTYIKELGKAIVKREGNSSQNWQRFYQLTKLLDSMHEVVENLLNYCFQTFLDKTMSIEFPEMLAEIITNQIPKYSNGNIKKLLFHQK

MR = molecular target: T5, MR (Homo sapiens, UniProt P08235); assay: Co-transfection assay, MR antagonist activity; format: cell-based
T5 construct: expressed in transfected cells; host or cells: CV-1 cells, transient transfection
T5 sequence (P08235 1-984): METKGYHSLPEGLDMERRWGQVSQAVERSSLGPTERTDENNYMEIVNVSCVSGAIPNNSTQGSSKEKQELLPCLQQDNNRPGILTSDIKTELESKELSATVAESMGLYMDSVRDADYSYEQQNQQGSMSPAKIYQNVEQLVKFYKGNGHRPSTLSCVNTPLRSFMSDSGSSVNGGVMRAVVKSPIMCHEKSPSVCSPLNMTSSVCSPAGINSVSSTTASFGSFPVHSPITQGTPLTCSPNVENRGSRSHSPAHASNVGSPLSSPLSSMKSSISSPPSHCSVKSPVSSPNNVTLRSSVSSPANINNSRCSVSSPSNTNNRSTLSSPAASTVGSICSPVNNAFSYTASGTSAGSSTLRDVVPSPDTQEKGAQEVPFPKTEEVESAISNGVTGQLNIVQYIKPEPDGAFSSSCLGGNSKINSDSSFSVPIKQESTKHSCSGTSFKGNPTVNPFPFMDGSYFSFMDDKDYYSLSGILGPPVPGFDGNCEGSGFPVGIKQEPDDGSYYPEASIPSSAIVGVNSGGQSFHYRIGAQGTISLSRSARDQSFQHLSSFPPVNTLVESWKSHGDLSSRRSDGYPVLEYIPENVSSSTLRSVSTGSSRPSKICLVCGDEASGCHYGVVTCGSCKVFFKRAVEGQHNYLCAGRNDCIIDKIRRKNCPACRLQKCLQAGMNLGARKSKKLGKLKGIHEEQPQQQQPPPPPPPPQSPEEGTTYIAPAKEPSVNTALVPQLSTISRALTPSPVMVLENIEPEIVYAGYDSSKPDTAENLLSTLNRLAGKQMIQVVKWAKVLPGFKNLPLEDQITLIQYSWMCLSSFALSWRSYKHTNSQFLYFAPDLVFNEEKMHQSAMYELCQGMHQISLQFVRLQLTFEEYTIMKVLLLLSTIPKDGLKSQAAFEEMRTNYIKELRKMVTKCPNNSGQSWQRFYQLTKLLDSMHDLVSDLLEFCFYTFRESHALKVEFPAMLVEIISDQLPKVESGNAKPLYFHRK

AR [7] = molecular target: T6, AR (Homo sapiens, UniProt P10275); assay: Co-transfection assay, AR agonist activity; format: cell-based; conditions: CV-1 cells
T6 construct: expressed in transfected cells; host or cells: CV-1 cells, transient transfection
T6 sequence (P10275 whole entry): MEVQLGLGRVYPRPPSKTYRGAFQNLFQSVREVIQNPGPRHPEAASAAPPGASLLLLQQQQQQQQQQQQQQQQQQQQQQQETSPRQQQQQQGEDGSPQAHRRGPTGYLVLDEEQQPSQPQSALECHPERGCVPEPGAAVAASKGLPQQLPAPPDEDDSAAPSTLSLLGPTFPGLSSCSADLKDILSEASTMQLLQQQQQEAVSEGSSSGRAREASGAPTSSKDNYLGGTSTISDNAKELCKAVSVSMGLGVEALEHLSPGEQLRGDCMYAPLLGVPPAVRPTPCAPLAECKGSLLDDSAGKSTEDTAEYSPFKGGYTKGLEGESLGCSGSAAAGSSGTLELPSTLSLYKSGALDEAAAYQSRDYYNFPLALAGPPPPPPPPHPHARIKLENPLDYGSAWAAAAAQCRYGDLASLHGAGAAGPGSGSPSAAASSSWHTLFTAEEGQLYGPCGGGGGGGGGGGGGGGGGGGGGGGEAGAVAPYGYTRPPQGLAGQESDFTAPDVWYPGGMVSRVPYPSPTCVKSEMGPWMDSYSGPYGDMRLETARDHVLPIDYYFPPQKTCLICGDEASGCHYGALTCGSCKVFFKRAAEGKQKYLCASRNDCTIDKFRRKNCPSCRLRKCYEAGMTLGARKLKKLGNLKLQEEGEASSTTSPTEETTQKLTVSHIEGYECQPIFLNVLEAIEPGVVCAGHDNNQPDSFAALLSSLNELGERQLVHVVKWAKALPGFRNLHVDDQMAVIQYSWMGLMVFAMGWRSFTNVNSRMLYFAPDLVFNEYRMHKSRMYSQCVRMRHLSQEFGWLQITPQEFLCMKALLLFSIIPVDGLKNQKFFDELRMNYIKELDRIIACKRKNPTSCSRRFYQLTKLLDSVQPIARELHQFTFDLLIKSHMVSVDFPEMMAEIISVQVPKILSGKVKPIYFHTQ

human AR = assay: AR whole cell binding assay (COS-1 cells); conditions: whole COS-1 cells, competition with 1 nM 3H-DHT, three hours at 37°C
AR [8] = molecular target: T6, AR; assay: Co-transfection assay, AR antagonist activity; format: cell-based
PR [9] = assay: Implantation assay (antiprogestin activity); format: in vivo, mice (ICR strain)
Experimental: Mating was assumed to have taken place at 02.00 h, time 0.
Compound 150 was dissolved in sesame oil (50 mg/mL) and kept at room temperature before use. […] Control animals received an equivuivalent volume of the control vehicle, sesame oil, alone.
The animals were sacrificed, and autopsies were carried out at Day 8 of pregnancy, and numbers of implantation sites counted and recorded, and are shown in Table 7 below. Each group consisted of between 5 and 7 animals.

[10] = CV-1 cells, agonist potency = EC50, read-out: PR Agonist CV-1 Cells Potency
[11] = competition with [3H] progesterone, baculovirus extract, 4°C, 16 hours, read-out: PR Binding Ki

Q: Which EC50 (human PR-B [1]) does the source give for `C[C@H]1C(=O)C(C)(C)Nc2ccc3c(c21)O[C@H](c1ccccc1)c1ccccc1-3` (relative stereo) [Compound 391, (R/S-4l,6l)-1,2,3,4-Tetrahydro-2,2,4-trimethyl-6-phenyl-5H-isochromeno[3,4-f]-3-quinolinone] here?
A: > 10000 nM

Q: And the Emax (human PR-B [1])?
A: < 20%

Q: What about the IC50 (human PR-B [2]) of the same compound?
A: 120 nM

Q: What about the Emax (human PR-B [2]) of the same compound?
A: 65%

Q: And the Ki [3]?
A: 187 nM

Q: Which “Mean Uterine Wet Weight” value (PR [4]; 3.0 mg/rat oral once a day for three days in the presence of estrone (10 µg/day, subcutaneous)) does the source give for `CC1=CC(C)(C)Nc2ccc3c(c21)C(c1ccc(Cl)cc1)Oc1ccccc1-3` (racemic) [Compound 163, (R/S)-5-(4-Chlorophenyl)-1,2-dihydro-2,2,4-trimethyl-5H-chromeno[3,4-f]quinoline] here?
A: 125 mg

Q: And the “effect on mean uterine wet weight” value (PR [4]; co-administered with estrone, dosage of 3 mg/rat)?
A: decreased by approximately half

Q: And the EC50 (ER [5])?
A: > 10000 nM

Q: What about the Emax (human PR-B [1]) of the same compound?
A: 77%

Q: What about the IC50 (ER [6]) of the same compound?
A: 2150 nM

Q: And the IC50 (GR)?
A: 1330 nM

Q: And the Emax (human PR-B [2])?
A: 45%

Q: And the IC50 (MR)?
A: 1450 nM

Q: Which EC50 (AR [7]; agonist potency = EC50) does the source give for “8-(4-Chlorobenzoyl)-5-trifluoromethyl-7-pyridono[5,6-e]indoline [Compound 420]” here?
A: 2100 nM

Q: And the “AR Agonist CV-1 Cells Efficacy (%)” value (AR [7]; relative to reference agonist DHT)?
A: 40%

Q: What about the Ki (human AR) of the same compound?
A: 346 nM

Q: And the IC50 (AR [8]; CV-1 cells, antagonist potency = IC50, DHT at its EC50, read-out: AR Antagonist CV-1 Cells Potency)?
A: 32 nM

Q: What about the “AR Antagonist CV-1 Cells Efficacy (%)” value (AR [8]; CV-1 cells, percent maximal inhibition, DHT at its EC50) of the same compound?
A: 80%

Q: How did the “Percent Pregnancy Rate” value (PR [9]; 5.0 mg/day oral, days 2 to 4 of pregnancy, mice) turn out when `CC1=CC(C)(C)Nc2ccc(-c3cccc(C#N)c3)cc21` [Compound 150, 6-(3-Cyanophenyl)-1,2-dihydro-2,2,4-trimethylquinoline] was run?
A: 0

Q: What about the “effect on pregnancy rate with simultaneous PR agonist” value (PR [9]; simultaneous injection of R5020 (promegestone) at 1.0 mg per day) of the same compound?
A: reversed to the control level

Q: What about the Emax (human PR-B [1]) of the same compound?
A: 24%

Q: What about the IC50 (ER [6]) of the same compound?
A: > 10000 nM

Q: What about the IC50 (GR) of the same compound?
A: 2700 nM

Q: What about the IC50 (AR [8]) of the same compound?
A: 140 nM

Q: What about the Emax (human PR-B [2]) of the same compound?
A: 91%

Q: And the IC50 (MR)?
A: 1900 nM

Q: With “8-Bromo-1,2-dihydro-2,2,4-trimethylindeno[1,2-g]quinoline [Compound 117]” as the compound, how does the EC50 (human PR-B [1]; [10]) read?
A: > 10000 nM

Q: What about the “PR Agonist CV-1 Cells Efficacy (%)” value (human PR-B [1]; CV-1 cells) of the same compound?
A: na (na = not active (i.e. efficacy of <20 and potency of >10,000))

Q: What about the Ki [3, 11] of the same compound?
A: > 10000 nM

Q: For “(R/S-4l,5l)-3-Benzenzylidene-5-(4-chlorophenyl)-1,2,3,4-tetrahydro-2,2,4-trimethyl-5H-chromeno[3,4-f]quinoline [Compound 401]”, which EC50 (human PR-B [1]; [10]) is on record?
A: 600 nM

Q: What about the “PR Agonist CV-1 Cells Efficacy (%)” value (human PR-B [1]; CV-1 cells) of the same compound?
A: 43%

Q: What about the IC50 (human PR-B [2]; CV-1 cells, antagonist potency = IC50, progesterone at its EC50, read-out: PR Antagonist CV-1 Cells Potency) of the same compound?
A: > 10000 nM

Q: And the “PR Antagonist CV-1 Cells Efficacy (%)” value (human PR-B [2]; CV-1 cells, percent maximal inhibition, progesterone at its EC50)?
A: na (na = not active (i.e. efficacy of <20 and potency of >10,000))

Q: And the Ki [3, 11]?
A: 150 nM

Q: What does the source list for `CC1=CC(C)(C)Nc2ccc(-c3cccc(F)c3F)cc21` [Compound 152, 6-(2,3-Difluorophenyl)-1,2-dihydro-2,2,4-trimethylquinoline]?
A: EC50 (human PR-B [1]): > 10000 nM; Emax (human PR-B [1]): < 20%; IC50 (human PR-B [2]): 130 nM; Emax (human PR-B [2]): 82%; Ki [3]: 53 nM

Reference: EP1382597A2, “Steroid receptor modulator compounds and methods” (LIGAND PHARMACEUTICALS, INC., priority 1994, dated 1996)
